Laboratory results taken from patent US5587479A, “Basic derivatives of glutamic acid and aspartic acid as gastrin or cholecystokinin antagonists” (priority 1992, dated 1996).
Converted amounts (≈) assume the structure as drawn. Where two headings read alike, the source gives them in different places.

Experiments:
[1] = system: acid secretion induced by pentagastrin; test: Activity against gastric secretion stimulated with pentagastrin in the anaesthetized rat; type: in vivo; settings: iv; anaesthetized rat, pentagastrin 30 mcg/kg/h, I.V. bolus; read-out: Antagonistic activity (ID50) towards acid secretion induced by pentagastrin
Description: The investigation of the activity against gastric secretion performed by the compounds of the invention by means of an antigastrin mechanism was carried out in vivo in anaesthetized rats with the use of male animals weighing about 200 g. Gastric secretion was stimulated with pentagastrin and the method of K. S. Lai [Gut 5, (1964), 327-341] was used, slightly modified.
After tracheotomy, the oesophagus and duodenum were cannulated. Perfusion was carried out with a tepid solution (37° C.) of 0.25 mM NaOH which was passed through the stomach by means of a peristaltic pump at a constant flow rate of 1 ml/minute. After stabilization for 20 minutes, the stimulant, dissolved in a physiological solution, was perfused for 120 minutes at a dose of 30 mcg/kg/h in a volume of 0.95 ml/hour. After perfusion for 60 minutes (the basal simulation), the product under test was administered intravenously (I.V.) as a bolus and the perfusion of the stimulant was continued for a further 60 minutes. The acid secretion was recorded continuously as a function of time.
The activity of the product was evaluated as the percentage reduction in the secreted acidity after the administration of the product compared with the basal acidity measured during the first 60 minutes of collection in the presence of pentagastrin alone.

guinea-pig ureters = test: Antispastic activity in vitro: spontaneous motility of guinea-pig ureters; settings: for IC50: Cavia porcellus, five minutes contact, 37° C.
From the text: The isotonic contractions were detected by means of a force transducer and recorded. […] A given concentration of the product under test was then introduced into the bath and left in contact with the prepared specimen for five minutes, after which the ureter was washed until its own spontaneous activity was re-established.

[2] = biological target: T1, central CCK-B receptors (guinea pig cortical membrane) (Cavia porcellus, UniProt H0VZC5); test: Inhibition of binding of (3-H)[N-methyl-N-leucine]CCK-8 to guinea pig cortical membranes (anti-CCK-B)
T1 construct: Cerebral cortices of white male guinea pigs were therefore used; from tissue; host or cells: guinea pig cerebral cortex membranes
T1 sequence (H0VZC5 1-426): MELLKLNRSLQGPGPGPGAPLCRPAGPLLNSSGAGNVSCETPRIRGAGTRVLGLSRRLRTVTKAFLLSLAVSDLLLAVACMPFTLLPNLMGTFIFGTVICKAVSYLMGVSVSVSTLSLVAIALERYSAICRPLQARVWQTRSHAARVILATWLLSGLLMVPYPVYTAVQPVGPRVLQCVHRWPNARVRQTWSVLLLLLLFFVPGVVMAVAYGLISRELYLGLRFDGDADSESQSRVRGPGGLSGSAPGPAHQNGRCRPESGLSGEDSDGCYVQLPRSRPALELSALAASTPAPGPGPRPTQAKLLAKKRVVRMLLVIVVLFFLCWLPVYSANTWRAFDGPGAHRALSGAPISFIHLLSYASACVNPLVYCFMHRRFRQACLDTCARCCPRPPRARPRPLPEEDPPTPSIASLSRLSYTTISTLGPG
Description: Cerebral cortices of white male guinea pigs were therefore used, according to the method mentioned above, so as to obtain a membrane content/ml corresponding to about 300 mcg of proteins/mi. The membranes were incubated together with the radioactive tracer and the compounds under test for 150 minutes at 25° C. After the supernatant liquid had been discarded, the radioactivity associated with the pellet was determined with a liquid scintillator.

mouse = test: Anxiolytic activity in the mouse, Black and White Box test; type: in vivo; settings: for TOTAL MOV.: five minutes
Description: In order to confirm the hypothesis that the potent activity of some of the compounds of the invention against central CCK-B may be correlated with a possible anxiolytic activity, this potential activity was evaluated in the mouse with the use of the "Black and White Box test". This experimental model, which was carried out according to Costall et al. [Pharm. Biochem. Behav. 32 (1989), 777-785] used a box with dimensions of 45×21×21 (h) cm. divided into two compartments which communicated with each other by means of a 13×5 cm hole. The smaller compartment (1/3 of the total area) had black walls, whereas the larger had transparent walls and was illuminated by a lamp which was placed 20 cm above the box and supplied light at 20 W. Under the floor was an activity meter which registered the movements performed by the animal in the individual compartments. The experiment was started by placing the animal in the centre of the illuminated box; as well at its movements, the time which the animal spent in the dark and in the light and the number of times it moved between the 2 compartments were recorded for five minutes. In general, a control animal tended preferably to stay in the dark compartment where it felt better protected from an unusual enviromental situation which put it in a state of anxiety. In this experimental model ( see the reference cited above), a compound having anxiolytic activity decreased the % of movements into the dark in comparison with the total movements, increased the movements between the two light-dark compartments, and increased the % of the total time time spent in the light. The results obtained are given in Table 5 below in which the activities obtained with the compound 1 (the rectus series ) and its enantiomer 2 (sinister) tested in comparison with diazepam and the CCK-B antagonist L365-260.

[3] = biological target: T2, cholecystokinin receptors of the pancreatic cells of the rat (CCK-A) (Rattus norvegicus, UniProt P30551); test: Inhibition of the binding of [125-I]-[Bolton-Hunter]-CCK-8 to rat pancreatic cells (anti-CCK-A); settings: 30 minutes at 37° C.; read-out: IC50, inhibition of the binding of (125-I)(B-H)-CCK-8 to the pancreatic cells of the rat
T2 construct: The pancreatic cells of the rat were prepared as described by Makovec et al; from tissue; host or cells: rat pancreatic cells
T2 sequence (P30551 1-444): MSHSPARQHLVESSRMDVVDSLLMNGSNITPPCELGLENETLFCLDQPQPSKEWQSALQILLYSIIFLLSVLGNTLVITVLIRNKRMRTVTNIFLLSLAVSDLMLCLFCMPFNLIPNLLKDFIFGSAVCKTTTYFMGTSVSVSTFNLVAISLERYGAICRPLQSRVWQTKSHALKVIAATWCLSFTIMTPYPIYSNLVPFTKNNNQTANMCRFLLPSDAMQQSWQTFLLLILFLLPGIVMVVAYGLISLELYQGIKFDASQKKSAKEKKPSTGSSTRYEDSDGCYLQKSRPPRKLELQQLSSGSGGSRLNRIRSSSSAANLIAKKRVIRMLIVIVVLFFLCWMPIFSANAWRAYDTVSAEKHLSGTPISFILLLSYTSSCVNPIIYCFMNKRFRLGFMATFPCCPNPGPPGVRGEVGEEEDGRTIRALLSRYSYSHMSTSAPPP
Description: The pancreatic cells of the rat were prepared as described by Makovec et al. (reference cited) so as to produce about 5×10^6 cells/mi. The cells were then incubated together with the radioactive tracer and the compounds under test for 30 minutes at 37° C.
After the supernatant liquid had been discarded, the radioactivity associated with the pellet was determined with a gamma counter (80% efficiency).

[4] = force of the contractions, read-out: IC50 (force), inhibition of the spontaneous motility of guinea-pig ureters in vitro
[5] = frequency of the contractions, read-out: IC50 (frequency), inhibition of the spontaneous motility of guinea-pig ureters in vitro
[6] = IC50, inhibition of binding of (3-H)[N-methyl-N-leucine]CCK-8 to the guinea pig cortical membrane, 150 minutes at 25° C.

Question: With `CN1CCN(C(=O)CC[C@@H](NC(=O)c2cc(Cl)cc(Cl)c2)C(=O)N2CCC3(CCCCC3)CC2)CC1` [Compound 13] as the molecule, how does the ED50 [1] read?
Answer: 8.5 mg/kg

Question: With `O=C(CC[C@@H](NC(=O)c1cc(Cl)cc(Cl)c1)C(=O)N1CCC2(CCCC2)CC1)NCCN1CCOCC1` [Compound 3] as the molecule, how does the ED50 [1] read?
Answer: 12.8 mg/kg

Question: What about the “activity on guinea-pig ureters (in words)” value (guinea-pig ureters) of the same molecule?
Answer: extremely active

Question: What about the IC50 (guinea-pig ureters; [4]) of the same molecule?
Answer: 4.5 µg/mL (≈ 8.13 µM)

Question: And the IC50 (guinea-pig ureters; [5])?
Answer: 4.3 µg/mL (≈ 7.77 µM)

Question: And the IC50 [2, 6]?
Answer: 2800 nM

Question: With `CN1CCN(C(=O)CC[C@H](NC(=O)c2cc(Cl)cc(Cl)c2)C(=O)N2CCC3(CCCC3)CC2)CC1` [Compound 2] as the molecule, how does the ED50 [1] read?
Answer: 24.8 mg/kg

Question: And the IC50 (guinea-pig ureters; [4])?
Answer: 25 µg/mL (≈ 47.8 µM)

Question: What about the IC50 (guinea-pig ureters; [5]) of the same molecule?
Answer: 20 µg/mL (≈ 38.2 µM)

Question: What about the “LIGHT TIME (%) TOTAL TIME” value (mouse; 0.1 mg/kg IP) of the same molecule?
Answer: 28.3%

Question: And the “LIGHT TIME (%) TOTAL TIME: % EFF.VS CONTROL” value (mouse; 0.1 mg/kg IP)?
Answer: 0%

Question: What about the “LIGHT-DARK MOVEMENTS” value (mouse; 0.1 mg/kg IP) of the same molecule?
Answer: 13.2

Question: What about the “LIGHT-DARK MOVEMENTS: % EFF. VS CONTROL” value (mouse; 0.1 mg/kg IP) of the same molecule?
Answer: 0%

Question: And the “MOV. DARK (%) TOTAL MOV.” value (mouse; 0.1 mg/kg IP)?
Answer: 50%

Question: And the “MOV. DARK (%) TOTAL MOV.: % EFF. VS CONTROL” value (mouse; 0.1 mg/kg IP)?
Answer: -4%

Question: What about the “TOTAL MOV.” value (mouse; 0.1 mg/kg IP) of the same molecule?
Answer: 477

Question: What about the “LIGHT TIME (%) TOTAL TIME” value (mouse; 1 mg/kg IP) of the same molecule?
Answer: 27.5%

Question: What about the “LIGHT TIME (%) TOTAL TIME: % EFF.VS CONTROL” value (mouse; 1 mg/kg IP) of the same molecule?
Answer: 0%

Question: And the “LIGHT-DARK MOVEMENTS” value (mouse; 1 mg/kg IP)?
Answer: 12.8

Question: What about the “LIGHT-DARK MOVEMENTS: % EFF. VS CONTROL” value (mouse; 1 mg/kg IP) of the same molecule?
Answer: 0%

Question: And the “MOV. DARK (%) TOTAL MOV.” value (mouse; 1 mg/kg IP)?
Answer: 50%

Question: What about the “MOV. DARK (%) TOTAL MOV.: % EFF. VS CONTROL” value (mouse; 1 mg/kg IP) of the same molecule?
Answer: -4%

Question: What about the “TOTAL MOV.” value (mouse; 1 mg/kg IP) of the same molecule?
Answer: 462

Question: And the “anxiolytic activity in the Black and White Box test (in words)” value (mouse; IP)?
Answer: completely inactive

Question: And the IC50 [2, 6]?
Answer: > 100000 nM

Question: What about the IC50 ([2]; read-out: IC50, binding to guinea-pig cortical membranes) of the same molecule?
Answer: > 1000 nM

Question: Which IC50 (guinea-pig ureters; [4]) does the source give for `CCCCCN(CCCCC)C(=O)[C@@H](CCC(=O)NCCN1CCOCC1)NC(=O)c1ccc2ccccc2c1` [Compound 61] here?
Answer: 32 µg/mL (≈ 57.9 µM)

Question: And the IC50 (guinea-pig ureters; [5])?
Answer: 100 µg/mL (≈ 181 µM)

Question: And the IC50 [3]?
Answer: 2800 nM

Question: And the IC50 [2, 6]?
Answer: 2900 nM

Question: `CCC(C)(CC)CCNC(=O)C(CC(=O)NCCN1CCOCC1)NC(=O)c1cccc(Cl)c1` (stereo not shown) [Compound 68] was tested. Which ED50 [1] did it give?
Answer: 31 mg/kg

Question: Which results are given for `O=C(O)CC[C@@H](NC(=O)c1cc(Cl)cc(Cl)c1)C(=O)N1CCC2(CCCC2)CC1` [CR 2194, reference compound]?
Answer: ED50 [1]: 11 mg/kg; IC50 [2, 6]: 2400 nM

Question: With `CCCCCN(CCCCC)C(=O)[C@@H](CCC(=O)NCCN1CCOCC1)NC(=O)c1cnc2ccccc2c1` [Compound 59] as the molecule, how does the IC50 [3] read?
Answer: 1200 nM
